According to patent US20260294874A1, “COMPOSITIONS COMPRISING MODULATORS OF RIBONUCLEOPROTEIN GRANULE FORMATION AND DISSOLUTION AND METHODS OF USE THEREOF” (University of Virginia Patent Foundation, priority 2023, published 2026):
Where two headings read alike, the source gives them in different places.

Experiments:
[1] = test system: stress granules and P-bodies; conditions: literature, cited from earlier work
[2] = test system: P-bodies (EDC4 foci) in HEK293T cells; assay: Immunofluorescence phenotypic screen for P-bodies (α-EDC4) in glucose-deprived HEK293T cells; format: cell-based
Method: (§1) SuTEx compound treatments. Prior to treatments, cells were washed twice with warm phosphate-buffered saline (PBS) and exchanged with serum-free DMEM (supplemented with 1% L-glutamine) for at least 30 minutes at 37° C. with 5% CO2. Compounds were then added as 1000×DMSO stocks (10 μL for 10 cm dishes and 3 μL for 6-well dishes), plates were mixed gently, and cells were incubated for two hours. All compounds were thoroughly vortexed and sonicated for five minutes prior to addition to ensure complete solvation. For microscopy experiments, cultures were seeded at 150,000 cells in 3 mL of DMEM in 6-well THERMO SCIENTIFIC™ BIOLITE™ brand microwell plates (Catalog No. 12556004; Thermo Fisher Scientific Inc., Waltham, Massachusetts. United States of America). For collection, media was aspirated, and cells were washed once with cold PBS before scraping from plates. Cells were centrifuged at 500×g at 4° C. for 5 minutes and supernatant was removed. Cell pellets were resuspended in cold PBS (1 mL) and centrifuged at 1,400×g at 4° C. for 3 minutes. Supernatant was again removed, and pellets were then snap-frozen in liquid nitrogen and stored at −80° C. until needed.
(§2) Immunofluorescence. Immunofluorescence (IF) of HEK293T cells was performed as previously described in Ciancone et al., 2022. HeLa cells were seeded at 9.0×10^4 in a 24-well plate with 12-mm glass coverslips. The next day, the cells were treated with 25 μM SuTEx probe for 2 hours in DMEM medium without FBS. The cells were then treated with 75 μM NaAsO2 for 30 minutes and fixed with 3% paraformaldehyde in PBS for 15 minutes at room temperature (RT) and washed with PBS twice. The fixed cells were permeabilized with PBST (0.1% Triton X-100) for 15 minutes at room temperature and blocked with 5% goat serum in PBST for 30 minutes at RT. The cells were incubated with anti-G3BP1 antibody H-10 (Catalog No. sc-365338 at 1:200 dilution; Santa Cruz Biotechnology, Inc., Dallas, Texas, United States of America) for 2 hours at RT and washed with PBST (0.1% Tween-20) for 5 minutes three times. Next, cells were incubated with goat anti-mouse Alexa 594 antibody (Catalog No. 115-585-003 at 1:800 dilution; Jackson ImmunoResearch, West Grove, Pennsylvania, United States of America) for 30 minutes at RT. The cells were washed twice with PBST, stained with Hoechst 33342 (Catalog No. H3570 at […]; Thermo Fischer Scientific) in PBST for 5 minutes, and washed with PBS twice for 5 minutes. The coverslips were mounted in PROLONG™ Gold AntiFade Mountant (Catalog No. P36930, Thermo Fisher Scientific) and imaged using NIS Elements AR software and a Nikon Eclipse Ti microscope equipped with a ×100 objective and CMOS camera. […] A CellProfiler pipeline was developed to quantify the number of stress granules under each condition. Briefly, cells were recognized as blue^+ (nuclei) red^+ (G3BP1) objects, and the red^+ granules that meet the shape and size threshold were identified and counted. Cells on the border of linages were excluded from the analysis for more accurate quantification.
Data Analysis—Microscopy. All slides were blinded for imaging. Leica SP5X images were analyzed using Fiji (ImageJ). Custom macros were written for analysis and can be obtained upon request. To elaborate, images were split into channels based on the different laser wavelengths measured. Image stacks were then combined using ‘Z-Project’ with an average intensity parameter and a threshold was applied to exclude noise based on the negative control (no EDC4 antibody). The ‘Analyze Particles’ function was used with relevant size and circularity constraints (0.85-1.00) to count the number of foci, with total PBs having a diameter of >150 nm, and large PBs>450 nm. The number of foci was normalized to the number of cells (defined by a DAPI stain count) in each linage, and the number of foci per cell was averaged across technical replicates. Every sample had at least two technical replicates and two independent biological replicates. […]

[3] = test system: stress granules (G3BP1 foci) in HeLa cells; assay: Immunofluorescence phenotypic screen for stress granules (α-G3BP1) in stressed HeLa cells; format: cell-based; conditions: 25 μM, 2 h
Method: as §1, §2
We used immunofluorescence (IF) detection for phenotypic screening of SuTEx compound activity on stress-induced PB and SG levels in cells (FIG. 1B). PBs were induced through glucose deprivation of HEK293T cells and detected by immunofluorescence with anti-enhancer of mRNA-decapping protein 4 (EDC4) as previously described (Kedersha & Anderson, 2007; Ciancone et al., 2022) (~4 vs 2 PBs/cell in −glucose and +glucose conditions, respectively; FIG. 8). EDC4 is an established PB marker for mammalian cells and is important for PB formation (Kedersha & Anderson, 2007; Luo et al., 2018). SGs were induced in HeLa cells by [COMPOUND LEFT OUT] treatments and detected by fluorescent staining with anti-Ras GTPase-activating protein-binding protein 1 (G3BP1) antibody (75 μM [COMPOUND LEFT OUT], 30 min; FIG. 9). G3BP1 foci have been used in previous IF studies to identify SGs in cells (Kedersha & Anderson, 2007). […]

[4] = test system: eIF4A; conditions: literature; cited from earlier work
[5] = glucose-deprived HEK293T cells, 25 μM, 2 h

Structure (SMILES)	effect on RNP granules (in words) [1]	inhibition of eIF4A (in words) [4]	other results
O=c1[nH]cc(F)c(=O)[nH]1 [5-fluorouracil]	formation of pro-survival SGs in solid tumors	–	–
O=S(=O)(c1cccnc1)n1cc(-c2ccccc2F)nn1 [AMC-001, 3-((4-(2-Fluorophenyl)-1H-1,2,3-triazol-1-yl)sulfonyl)pyridine]	–	–	fold induction at 25 µM ([2]; Homo sapiens, HEK-293T, glucose-deprived HEK293T cells, pretreatment, 25 μM, 2 h, read-out: increase in PBs/cells): > 2; effect on PBs (in words) [2, 5]: statistically significant increase in PBs per glucose-deprived cell; increase in PBs ([2]; glucose-deprived cells, pretreatment): > 200%; effect on SGs (in words) [3]: negligible effects on the number of SGs per cell
O=S(=O)(c1ccc(F)cc1)n1cnc(-c2cccnc2)n1 [JWB180, 3-(1-((4-Fluorophenyl)sulfonyl)-1H-1,2,4-triazol-3-yl)pyridine]	–	–	effect on PBs (in words) [2, 5]: negligible effects; effect on SGs (in words) [3]: negligible effects
CC(C)C[C@H](NC(=O)[C@H](Cc1ccccc1)NC(=O)c1cnccn1)B(O)O [bortezomib]	formation of pro-survival SGs in solid tumors	–	–
C[C@@H]1C[C@@H]([C@H](O)CC2CC(=O)NC(=O)C2)C(=O)[C@@H](C)C1 [cycloheximide]	–	–	toxicity (in words) [1]: significant toxicity
CC[C@H]1CN2CCc3cc(OC)c(OC)cc3[C@@H]2C[C@@H]1C[C@H]1NCCc2cc(OC)c(OC)cc21 [emetine]	disassemble SGs and stress-induced PBs	–	effect on PB formation (in words) ([2]; emetine 50 nM, 2 h, vs vehicle (water), p<0.001): inhibited PB formation; toxicity (in words) [1]: significant toxicity; effect on RNP granules (in words) ([1]; listed as Emetine): inhibit and even dissociate PBs
C[C@H]1C[C@@]2(O[C@H]3C[C@H]4[C@@H]5CC[C@H]6C[C@H](O)CC[C@]6(C)[C@H]5[C@@H](O)C[C@]4(C)[C@H]3[C@@]2(C)O)OC1(C)C [hippuristanol]	induce SGs in an eIF2a-independent manner	inhibit eIF4A	–
CC(/C=C/C(C)=C/[C@@H]1Cc2nc(cs2)[C@@H](C)C[C@@H](N)CC(=O)O[C@@H](C)C/C(C)=C/C=C\C(=O)O1)=C\CN(C)C [pateamine A]	induce SGs in an eIF2a-independent manner	inhibit eIF4A	–
COc1ccc([C@@]23Oc4cc(OC)cc(OC)c4[C@]2(O)[C@H](O)[C@H](C(=O)N(C)C)[C@H]3c2ccccc2)cc1 [rocaglamide A]	–	inhibit eIF4A	–
COC(=O)[C@H]1[C@@H](O)[C@@]2(O)c3c(OC)cc(O[C@@H]4O[C@@H]([C@H](O)CO)CO[C@H]4OC)cc3O[C@@]2(c2ccc(OC)cc2)[C@@H]1c1ccccc1 [silvestrol]	–	inhibit eIF4A	–
CC[C@]1(O)C[C@@H]2CN(CCc3c([nH]c4ccccc34)[C@@](C(=O)OC)(c3cc4c(cc3OC)N(C)[C@H]3[C@@](O)(C(=O)OC)[C@H](OC(C)=O)[C@]5(CC)C=CCN6CC[C@]43[C@@H]65)C2)C1 [vinblastine]	form PBs	–	–
